System: HeLa cells stably expressing tfLC3
Assay: tfLC3 test (autophagy activity, GFP/RFP ratio)
Type: cell-based
Conditions: for Ratio with respect to DMSO (GFP/RFP value, negative control taken as 1): final concentration 10 μM, 24 hours, HeLa cells stably expressing tfLC3, negative control 0.1% DMSO = 1, lower value = autophagy activation; for autophagy activation effect (in words): tfLC3 test, GFP/RFP ratio lower than negative control
Source text: An autophagy activation effect was examined by a tfLC3 test using the compound represented by the structural formula (1) (manufactured by INDOFINE Chemical Company) and the compound represented by the structural formula (2) (manufactured by INDOFINE Chemical Company) as test samples.
The tfLC3 test is a test performed by using tfLC3, in which LC3 that is an autophagosome marker protein is tandemly tagged with fluorescent proteins mRFP (RFP: Red Fluorescent Protein) and EGFP (GFP: Green Fluorescent Protein) (Autophagy 2007; 3:452-460. (PubMed: 17534139) DOI: 10.4161/auto. 4451).
In a cell undergoing autophagy, LC3 dots increase. However, LC3 is accumulated in a cell even if degradation due to autophagy is inhibited. Therefore, an increase of the LC3 dots alone cannot be used to conclude that autophagy is enhanced. Therefore, enhancement and inhibition of autophagy can be distinguished by examining the maturation process of autophagosomes (process of fusion of autophagosomes with lysosomes, or degradation in autolysosomes after fusion).
A fluorescent signal (green) of GFP of the tfLC3 is attenuated in the environment within the lysosomes, but RFP (red) is stable in the same environment. By using this characteristic of tfLC3 that fluorescence becomes red due to quenching of GFP in the process of maturing autophagosomes into autolysosomes, a GFP/RFP ratio within a cell is analyzed in the tfLC3 test to determine whether or not a test sample added to a medium has an autophagy activation capability.
HeLa cells stably expressing tfLC3 were seeded in a 96-well plate (Perkin Elmer #6055302 Cell Carrier 96 Ultra Black 96 well, Clear Bottom, with Lid), and the HeLA cells were cultured in a growth medium [Growth medium (DMEM (Sigma D6546) supplemented with 10% FBS and 4 mM L-glutamine] in a 5% CO2 incubator for 24 hours. Then, the medium was replaced with a medium to which a test sample was added (see Table 1 for the final concentration of the test sample), followed by culturing for 24 hours.
As a negative control, cells cultured in a medium including 0.1% dimethyl sulfoxide (DMSO) were used.
The GFP/RFP value (may be referred to as a “ratio with respect to DMSO” hereinafter) measured in the cells cultured in the test sample-added medium was calculated by determining the GFP/RFP value measured in the negative control as 1.
A test sample that has a lower value for the GFP/RFP ratio than the value for the GFP/RFP ratio of the negative control can be determined as having an autophagy activation effect.

| Structure (SMILES) | Ratio with respect to DMSO (GFP/RFP value, negative control taken as 1) | autophagy activation effect (in words) |
| --- | --- | --- |
| COc1ccc2c(=O)c(OC)c(-c3cc(OC)c(OC)c(OC)c3)oc2c1 [3,7-dimethoxy-2-(3,4,5-trimethoxyphenyl)-4H-chromen-4-one] | 0.848 | had the autophagy activation effect |
| COc1cc(OC)c2c(=O)cc(-c3ccc(OC)c(OC)c3)oc2c1 [2-(3,4-dimethoxyphenyl)-5,7-dimethoxy-4H-chromen-4-one] | 0.847 | had the autophagy activation effect |
